Read-outs that look alike come from different tables or passages of the source.
Legend:
[1] = molecular target: T1, XIAP BIR3 (Homo sapiens, UniProt P98170); test: XIAP-BIR3/SMAC Homogeneous Time Resolved Fluorescence (HTRF) Assay; type: binding
T1 construct: His-BIR3 (241-356, XIAP)
Outline: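 Competition HTRF between XIAP-BIR3 and SMAC; reaction 60 min at room temperature, then anti-6×His-terbium Fab detection for a further 30 min.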

[2] = molecular target: T2, XIAP BIR2-3 (Homo sapiens, UniProt P98170, C202A/C213G); test: XIAP-BIR2-3 dimeric SMAC Peptide Homogeneous Time Resolved Fluorescence (HTRF) Assay; type: binding
T2 construct: His-BIR2-3 (125-356, C202A/C213G, XIAP)
T2 sequence (P98170 125-356 C202A/C213G): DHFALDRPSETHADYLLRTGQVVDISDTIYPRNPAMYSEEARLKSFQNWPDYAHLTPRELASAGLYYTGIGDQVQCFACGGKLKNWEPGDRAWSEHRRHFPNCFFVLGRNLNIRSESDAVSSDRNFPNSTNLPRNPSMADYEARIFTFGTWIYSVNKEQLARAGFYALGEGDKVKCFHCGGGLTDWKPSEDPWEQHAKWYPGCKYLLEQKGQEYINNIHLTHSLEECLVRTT
Method: B. […] Assays were performed in black, flat-bottom, 384-well plates. […] Compounds were dissolved at 3 mM in dimethylsulfoxide (DMSO) and evaluated at eleven serially diluted concentrations. IC50 and Ki values were derived by non-linear regression analysis.

[3] = 1 nM N-His-BIR3 (241-356, XIAP), 5 nM fluorescein labeled SMAC peptide, HTRF signal, read-out: XIAP BIR3 IC50
[4] = 0.5 nM N-His-BIR2-3 (125-356, C202A/C213G, XIAP), 20 nM fluorescein labeled dimeric SMAC peptide, HTRF signal, read-out: XIAP BIR2-3 IC50

T1 sequence (P98170 241-356): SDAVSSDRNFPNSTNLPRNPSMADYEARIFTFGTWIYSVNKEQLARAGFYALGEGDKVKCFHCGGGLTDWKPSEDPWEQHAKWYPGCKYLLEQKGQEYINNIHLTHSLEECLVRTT

| Structure (SMILES) | IC50 [1, 3] [nM] | IC50 [2, 4] [nM] | IC50 [1] [nM] | IC50 [2] [nM] |
| --- | --- | --- | --- | --- |
| CN[C@@H](C)C(=O)N[C@H](C(=O)N1C[C@@H](c2ccc3c(c2)CN(C(=O)[C@@H](NC(=O)[C@H](C)NC)C(C)(C)C)[C@H](C(=O)N[C@@H]2CCCc4ccccc42)C3)C[C@H]1C(=O)N[C@@H](Cc1ccccc1)C(=O)N(C)CCC(C)C)C(C)(C)C [Example 53, (S)-2-((S)-3,3-Dimethyl-2-((S)-2-(methylamino)propanamido)butanoyl)-7-((3R,5S)-1-((S)-3,3-dimethyl-2-((S)-2-(methylamino)propanamido)butanoyl)-5-(((S)-1-(isopentyl(methyl)amino)-1-oxo-3-phenylpropan-2-yl)carbamoyl)pyrrolidin-3-yl)-N-((R)-1,2,3,4-tetrahydronaphthalen-1-yl)-1,2,3,4-tetrahydroisoquinoline-3-carboxamide] | 53.9 | 86.9 | – | – |
| CN[C@@H](C)C(=O)N[C@H](C(=O)N1C[C@@H](c2ccc3c(c2)CN(C(=O)[C@@H](NC(=O)[C@H](C)NC)C(C)(C)C)[C@H](C(=O)N[C@@H]2CCCc4ccccc42)C3)C[C@H]1C(=O)N[C@@H](Cc1ccccc1)C(=O)N(C)CCOC)C(C)(C)C [Example 55, (S)-2-((S)-3,3-Dimethyl-2-((S)-2-(methylamino)propanamido)butanoyl)-7-((3R,5S)-1-((S)-3,3-dimethyl-2-((S)-2-(methylamino)propanamido)butanoyl)-5-(((S)-1-((2-methoxyethyl)(methyl)amino)-1-oxo-3-phenylpropan-2-yl)carbamoyl)pyrrolidin-3-yl)-N-((R)-1,2,3,4-tetrahydronaphthalen-1-yl)-1,2,3,4-tetrahydroisoquinoline-3-carboxamide] | 37.7 | 8.5 | – | – |
| CN[C@@H](C)C(=O)N[C@H](C(=O)N1C[C@@H](c2ccc3c(c2)CN(C(=O)[C@@H](NC(=O)[C@H](C)NC)C(C)(C)C)[C@H](C(=O)N[C@@H]2CCCc4ccccc42)C3)C[C@H]1C(=O)N[C@@H](Cc1ccccc1)C(=O)NC(C)C)C(C)(C)C [Example 56, (S)-2-((S)-3,3-Dimethyl-2-((S)-2-(methylamino)propanamido)butanoyl)-7-((3R,5S)-1-((S)-3,3-dimethyl-2-((S)-2-(methylamino)propanamido)butanoyl)-5-(((S)-1-(isopropylamino)-1-oxo-3-phenylpropan-2-yl)carbamoyl)pyrrolidin-3-yl)-N-((R)-1,2,3,4-tetrahydronaphthalen-1-yl)-1,2,3,4-tetrahydroisoquinoline-3-carboxamide] | – | – | 8.8 | 2 |
| CN[C@@H](C)C(=O)N[C@H](C(=O)N1C[C@@H](c2ccc3c(c2)CN(C(=O)[C@@H](NC(=O)[C@H](C)NC)C(C)(C)C)[C@H](C(=O)N[C@@H]2CCCc4ccccc42)C3)C[C@H]1C(=O)N[C@@H](Cc1ccccc1)C(=O)NCCOC)C(C)(C)C [Example 61, (S)-2-((S)-3,3-Dimethyl-2-((S)-2-(methylamino)propanamido)butanoyl)-7-((3R,5S)-1-((S)-3,3-dimethyl-2-((S)-2-(methylamino)propanamido)butanoyl)-5-(((S)-1-((2-methoxyethyl)amino)-1-oxo-3-phenylpropan-2-yl)carbamoyl)pyrrolidin-3-yl)-N-((R)-1,2,3,4-tetrahydronaphthalen-1-yl)-1,2,3,4-tetrahydroisoquinoline-3-carboxamide] | 22.1 | 3.4 | – | – |
| CCN(CC)C(=O)[C@H](Cc1ccccc1)NC(=O)[C@@H]1C[C@H](c2ccc3c(c2)CN(C(=O)[C@@H](NC(=O)[C@H](C)NC)C(C)(C)C)[C@H](C(=O)N[C@@H]2CCCc4ccccc42)C3)CN1C(=O)[C@@H](NC(=O)[C@H](C)NC)C(C)(C)C [Example 62, (S)-7-((3R,5S)-5-(((S)-1-(Diethylamino)-1-oxo-3-phenylpropan-2-yl)carbamoyl)-1-((S)-3,3-dimethyl-2-((S)-2-(methylamino)propanamido)butanoyl)pyrrolidin-3-yl)-2-((S)-3,3-dimethyl-2-((S)-2-(methylamino)propanamido)butanoyl)-N-((R)-1,2,3,4-tetrahydronaphthalen-1-yl)-1,2,3,4-tetrahydroisoquinoline-3-carboxamide] | – | – | 9.2 | 1.9 |
| CN[C@@H](C)C(=O)N[C@H](C(=O)N1C[C@@H](c2ccc3c(c2)CN(C(=O)[C@@H](NC(=O)[C@H](C)NC)C(C)(C)C)[C@H](C(=O)N[C@@H]2CCCc4ccccc42)C3)C[C@H]1C(=O)N[C@@H](Cc1ccccc1)C(=O)N(C1CC1)C1CC1)C(C)(C)C [Example 63, (S)-7-((3R,5S)-5-(((S)-1-(Dicyclopropylamino)-1-oxo-3-phenylpropan-2-yl)carbamoyl)-1-((S)-3,3-dimethyl-2-((S)-2-(methylamino)propanamido)butanoyl)pyrrolidin-3-yl)-2-((S)-3,3-dimethyl-2-((S)-2-(methylamino)propanamido)butanoyl)-N-((R)-1,2,3,4-tetrahydronaphthalen-1-yl)-1,2,3,4-tetrahydroisoquinoline-3-carboxamide] | 16.7 | 3 | – | – |

The remaining compounds from weak to strong by IC50 [1, 3], led by results:

| IC50 [1, 3] [nM] | IC50 [2, 4] [nM] | Structure (SMILES) | IC50 [1] [nM] | IC50 [2] [nM] |
| --- | --- | --- | --- | --- |
| 9.9 | 2.6 | CN[C@@H](C)C(=O)N[C@H](C(=O)N1C[C@@H](c2ccc3c(c2)CN(C(=O)[C@@H](NC(=O)[C@H](C)NC)C(C)(C)C)[C@H](C(=O)N[C@@H]2CCCc4ccccc42)C3)C[C@H]1C(=O)N[C@@H](Cc1ccccc1)C(=O)Nc1ccc(-c2cnco2)cc1)C(C)(C)C [Example 57, (S)-2-((S)-3,3-Dimethyl-2-((S)-2-(methylamino)propanamido)butanoyl)-7-((3R,5S)-1-((S)-3,3-dimethyl-2-((S)-2-(methylamino)propanamido)butanoyl)-5-(((S)-1-((4-(oxazol-5-yl)phenyl)amino)-1-oxo-3-phenylpropan-2-yl)carbamoyl)pyrrolidin-3-yl)-N-((R)-1,2,3,4-tetrahydronaphthalen-1-yl)-1,2,3,4-tetrahydroisoquinoline-3-carboxamide] | – | – |
| 7.6 | 2.3 | CN[C@@H](C)C(=O)N[C@H](C(=O)N1C[C@@H](c2ccc3c(c2)CN(C(=O)[C@@H](NC(=O)[C@H](C)NC)C(C)(C)C)[C@H](C(=O)N[C@@H]2CCCc4ccccc42)C3)C[C@H]1C(=O)N[C@@H](Cc1ccccc1)C(=O)Nc1cccc(-c2cnco2)c1)C(C)(C)C [Example 58, (S)-2-((S)-3,3-Dimethyl-2-((S)-2-(methylamino)propanamido)butanoyl)-7-((3R,5S)-1-((S)-3,3-dimethyl-2-((S)-2-(methylamino)propanamido)butanoyl)-5-(((S)-1-((3-(oxazol-5-yl)phenyl)amino)-1-oxo-3-phenylpropan-2-yl)carbamoyl)pyrrolidin-3-yl)-N-((R)-1,2,3,4-tetrahydronaphthalen-1-yl)-1,2,3,4-tetrahydroisoquinoline-3-carboxamide] | – | – |
| 6.8 | 2.9 | CN[C@@H](C)C(=O)N[C@H](C(=O)N1C[C@@H](c2ccc3c(c2)CN(C(=O)[C@@H](NC(=O)[C@H](C)NC)C(C)(C)C)[C@H](C(=O)N[C@@H]2CCCc4ccccc42)C3)C[C@H]1C(=O)N[C@@H](Cc1ccccc1)C(=O)N(C)CCc1ccccn1)C(C)(C)C [Example 54, (S)-2-((S)-3,3-Dimethyl-2-((S)-2-(methylamino)propanamido)butanoyl)-7-((3R,5S)-1-((S)-3,3-dimethyl-2-((S)-2-(methylamino)propanamido)butanoyl)-5-(((S)-1-(methyl(2-(pyridin-2-yl)ethyl)amino)-1-oxo-3-phenylpropan-2-yl)carbamoyl)pyrrolidin-3-yl)-N-((R)-1,2,3,4-tetrahydronaphthalen-1-yl)-1,2,3,4-tetrahydroisoquinoline-3-carboxamide] | – | – |
| 6.7 | 2.2 | CN[C@@H](C)C(=O)N[C@H](C(=O)N1C[C@@H](c2ccc3c(c2)CN(C(=O)[C@@H](NC(=O)[C@H](C)NC)C(C)(C)C)[C@H](C(=O)N[C@@H]2CCCc4ccccc42)C3)C[C@H]1C(=O)N[C@@H](Cc1ccccc1)C(=O)Nc1cccc(C#N)c1)C(C)(C)C [Example 59, (S)-7-((3R,5S)-5-(((S)-1-((3-Cyanophenyl)amino)-1-oxo-3-phenylpropan-2-yl)carbamoyl)-1-((S)-3,3-dimethyl-2-((S)-2-(methylamino)propanamido)butanoyl)pyrrolidin-3-yl)-2-((S)-3,3-dimethyl-2-((S)-2-(methylamino)propanamido)butanoyl)-N-((R)-1,2,3,4-tetrahydronaphthalen-1-yl)-1,2,3,4-tetrahydroisoquinoline-3-carboxamide] | – | – |
| 3.4 | 1.2 | CN[C@@H](C)C(=O)N[C@H](C(=O)N1C[C@@H](c2ccc3c(c2)CN(C(=O)[C@@H](NC(=O)[C@H](C)NC)C(C)(C)C)[C@H](C(=O)N[C@@H]2CCCc4ccccc42)C3)C[C@H]1C(=O)N[C@@H](Cc1ccccc1)C(=O)Nc1nncs1)C(C)(C)C [Example 52, (S)-7-((3R,5S)-5-(((S)-1-((1,3,4-Thiadiazol-2-yl)amino)-1-oxo-3-phenylpropan-2-yl)carbamoyl)-1-((S)-3,3-dimethyl-2-((S)-2-(methylamino)propanamido)butanoyl)pyrrolidin-3-yl)-2-((S)-3,3-dimethyl-2-((S)-2-(methylamino)propanamido)butanoyl)-N-((R)-1,2,3,4-tetrahydronaphthalen-1-yl)-1,2,3,4-tetrahydroisoquinoline-3-carboxamide] | – | – |
